According to patent US20220175723A1, “METHODS AND COMPOSITIONS RELATING TO INHIBITION OF ALDEHYDE DEHYDROGENASES FOR TREATMENT OF CANCER” (THE PENN STATE RESEARCH FOUNDATION, priority 2019, published 2022):
Read-outs that look alike come from different tables or passages of the source.

Columns and labels:
ALDH3A1 = biological target: T1, ALDH3A1 (Homo sapiens, UniProt P30838); assay: ALDH isoform-specific enzyme assay (NADH absorbance 340 nm); format: biochemical
T1 construct: purchased R & D Systems, Inc, Minneapolis, Minn., USA
T1 sequence (P30838 1-453): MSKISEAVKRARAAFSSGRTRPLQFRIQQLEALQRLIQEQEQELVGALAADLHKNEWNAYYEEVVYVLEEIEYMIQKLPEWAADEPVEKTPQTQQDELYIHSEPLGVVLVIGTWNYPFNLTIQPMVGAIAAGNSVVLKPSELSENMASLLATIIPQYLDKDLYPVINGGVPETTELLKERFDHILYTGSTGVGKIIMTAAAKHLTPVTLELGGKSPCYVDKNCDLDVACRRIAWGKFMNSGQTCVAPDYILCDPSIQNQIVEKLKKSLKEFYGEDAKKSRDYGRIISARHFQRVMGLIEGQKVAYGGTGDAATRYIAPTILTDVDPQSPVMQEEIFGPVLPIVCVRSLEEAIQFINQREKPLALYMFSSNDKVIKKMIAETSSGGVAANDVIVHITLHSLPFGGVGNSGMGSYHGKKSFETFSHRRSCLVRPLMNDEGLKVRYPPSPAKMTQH
Protocol: (§4) ALDH enzyme assays were performed using a kit as described by the kit manufacturer (R & D Systems, Inc, Minneapolis, Minn., USA). Isoform-specific aldehydes were converted to their respective carboxylic acids along with conversion of NAD+ to NADH (absorbance at 340 nm). […] Similarly, 0.5 μg/mL of ALDH2 was used in the reaction with 2 mM of acetaldehyde as the substrate and 0.2 μg/mL of ALDH3A1 was used in the reaction with 1 mM of 4-nitrobenzaldehyde (4-NBA) as the substrate following addition of ALDH inhibitors.
(§5) ALDH1A1, 2 and 3A1 enzyme assays were performed as described by the manufacturer (R & D systems). Isoform-specific aldehydes were converted to their respective carboxylic acids along with the conversion of NAD+ to NADH (absorbance at 340 nm).

[1] = system: total cellular ALDH activity, 1205 Lu cell lysates; assay: Total cellular ALDH activity in cell lysates; format: biochemical, human; settings: 1 uM inhibitor, 15 minutes
Excerpt: (§1) The ALDHs reduce ROS, lipid peroxidation and toxic aldehyde accumulation, the latter of which can lead to cell damage and apoptosis as shown in FIG. 6A. Thus, inhibition of total cellular ALDH activity can increase toxic aldehydes, oxidative damage and apoptosis.

[2] = system: total cellular ALDH activity, UACC 903 cell lysates; assay: Total cellular ALDH activity in cell lysates; format: biochemical, human; settings: 1 uM inhibitor, 15 minutes
Excerpt: as §1

UACC 903 cells = assay: Cell viability MTS assay, UACC 903; format: cell-based, human; settings: 100 μM, 72 hours
Protocol: Cell viability assays of UACC 903 cells transfected with siRNA, and melanoma cell lines (UACC 903, 1205 Lu, C8161.CI9, MelJuSo), FF2441 and NHEM cells treated with ALDH inhibitors were performed. For this, 5,000 cells per well were plated in a 96-well plate and incubated overnight at 37° C. in a 5% CO2 atmosphere. For the siRNA knockdown experiment, cells were incubated for another 72 hours. For the ALDH inhibitor experiments, cells were treated with agents at various concentrations and incubated for 72 hours. 20 μL of MTS reagent was then added into each well and formation of tetrazolium was measured by absorbance after 1 hour at 492 nm. IC50 values or % cells for each experimental group were measured in three independent experiments using GraphPad Prism version 7.04 (GraphPad Software, La Jolla, Calif.).
Briefly, 3,000 cells per well were plated in a 96-well plate and incubated overnight at 37° C. in a 5% CO2 atmosphere. […] 20 μL of MTS reagent was then added into each well and formation of tetrazolium was measured by absorbance after 1 hour at 492 nm. IC50 values for each experimental group were measured in 3 independent experiments using GraphPad Prism version 7.04 (GraphPad Software, La Jolla, Calif.).

[3] = Toxicity study, 14 days i.p.; format: in vivo, Swiss-Webster mice; settings: 5 mg/kg/day i.p. for 14 days, vs DMSO
Protocol: To determine the toxicity of 3(h-l), compounds were injected i.p. into Swiss-Webster mice once daily for 14 days (Id.). Animals were monitored for changes in body weight, behavior and physical distress compared to DMSO control.

HCT116 cells [4] = assay: Cell survival MTS assay with or without NAC; format: cell-based, human
Protocol: (§2) FIGS. 30A-30F. […] ROS levels were measured using DCFDA dye and compared to DMSO control. Malondialdehyde (MDA) levels were measured in colon cancer cell line HCT116 using thiobarbituric acid and compared to DMSO control (FIG. 30C). Cell survival assay was performed by MTS assay (FIG. 30D), apoptosis by Annexin-V/7-AAD (FIG. 30E) and cell cycle by propidium iodide staining in colon cancer cell line HCT116 (FIG. 30F).
(§3) Further, the effect of the addition of NAC on the antiproliferative and apoptotic activity of ALDH inhibitors was also evaluated.

HCT116 and HT29 cells = assay: ROS assay (DCFDA), Study 2, with or without NAC; format: cell-based, human
Protocol: ROS activity was measured using DCFDA dye^51. […] Cells were incubated with 10 μM of DCFDA for 1 hour, and fluorescence was measured at 485 nm excitation and 510 nm emission. ROS levels in treated cells were compared to DMSO control.

HCT116 cells [5] = assay: Apoptosis by Annexin-V/7-AAD with or without NAC; format: cell-based, human; design: dose or concentration left out as unconfirmed; settings: vs DMSO or 3a
Protocol: as §2, §3

HCT116 cells [6] = assay: Cell cycle by propidium iodide staining with or without NAC; format: cell-based, human
Protocol: as §2, §3

ALDH2 = biological target: T2, ALDH2 (Homo sapiens, UniProt P05091); assay: ALDH isoform-specific enzyme assay (NADH absorbance 340 nm); format: biochemical; settings: Study 1; read-out: IC50s ALDH2
T2 construct: purchased R & D Systems, Inc, Minneapolis, Minn., USA
T2 sequence (P05091 18-517): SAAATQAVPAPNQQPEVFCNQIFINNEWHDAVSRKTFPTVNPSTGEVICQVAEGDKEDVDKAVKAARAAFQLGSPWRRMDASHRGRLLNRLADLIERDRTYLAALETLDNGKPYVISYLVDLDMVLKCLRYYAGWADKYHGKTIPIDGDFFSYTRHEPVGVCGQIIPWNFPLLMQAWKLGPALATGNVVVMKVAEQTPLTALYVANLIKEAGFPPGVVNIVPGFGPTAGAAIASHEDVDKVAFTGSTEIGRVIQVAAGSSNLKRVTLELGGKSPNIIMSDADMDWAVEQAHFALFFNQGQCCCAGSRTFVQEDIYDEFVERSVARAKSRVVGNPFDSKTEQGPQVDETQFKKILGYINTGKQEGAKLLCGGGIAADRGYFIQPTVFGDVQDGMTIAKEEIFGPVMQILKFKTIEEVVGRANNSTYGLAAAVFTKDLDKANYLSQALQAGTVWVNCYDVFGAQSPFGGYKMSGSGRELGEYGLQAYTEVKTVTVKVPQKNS
Protocol: as §4, §5

ALDH1A1 = biological target: T3, ALDH1A1 (Homo sapiens, UniProt P00352); assay: as above; format: biochemical; settings: Study 1; read-out: IC50s ALDH1A1
T3 construct: purchased R & D Systems, Inc, Minneapolis, Minn., USA
T3 sequence (P00352 1-501): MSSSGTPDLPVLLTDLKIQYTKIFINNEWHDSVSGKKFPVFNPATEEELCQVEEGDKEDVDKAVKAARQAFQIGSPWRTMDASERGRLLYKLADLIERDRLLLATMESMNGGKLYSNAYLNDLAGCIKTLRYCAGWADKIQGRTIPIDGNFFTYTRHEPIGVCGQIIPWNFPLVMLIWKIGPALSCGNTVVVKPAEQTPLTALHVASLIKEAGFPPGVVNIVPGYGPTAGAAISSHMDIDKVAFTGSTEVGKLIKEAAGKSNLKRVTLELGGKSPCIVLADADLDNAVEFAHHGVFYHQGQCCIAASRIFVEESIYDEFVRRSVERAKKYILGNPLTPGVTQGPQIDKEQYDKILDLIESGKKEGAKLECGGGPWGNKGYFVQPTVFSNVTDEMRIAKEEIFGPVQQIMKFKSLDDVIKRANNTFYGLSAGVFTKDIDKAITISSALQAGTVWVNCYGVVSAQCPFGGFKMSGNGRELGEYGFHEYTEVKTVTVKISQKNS
Protocol: as §4, §5

[7] = Study 1, read-out: IC50s ALDH3A1

| SMILES | IC50 (ALDH3A1; [7]) [µM] | reduction of total cellular ALDH activity, 1205 Lu [1] | reduction of total cellular ALDH activity, UACC 903 [2] | IC50 (ALDH2) [µM] | IC50 (ALDH1A1) [µM] | further results |
| --- | --- | --- | --- | --- | --- | --- |
| CCN(CC)c1ccc(C=O)cc1 [DEAB] | 15.1 | significantly reduced | significantly reduced | – | – | IC50 (ALDH3A1; Study 1, text, read-out: IC50 ALDH3A1): 15.1 µM; reduction of UACC 903 cell survival (UACC 903 cells): 30% |
| CCOC(=O)CSc1nc2c(sc3ccccc32)c(=O)n1CCCN1CCCC1 [CM037] | – | significantly reduced | significantly reduced | – | – | – |
| Br.N=C(N)SCc1ccc(CN2C(=O)C(=O)c3cc(C(F)(F)F)ccc32)cc1 [Compound 3h, 2-[4-(2,3-Dioxo-5-trifluoromethyl-2,3-dihydroindol-1-ylmethyl)benzyl]isothiourea hydrobromide] | – | – | – | – | – | weight loss [3]: no significant weight loss; increase of cell killing IC50 by addition of NAC (HCT116 cells [4]): 6 fold; ROS levels (HCT116 and HT29 cells; 5 μM, 24 hours, vs DMSO): significantly increased; ROS-inducing activity on addition of NAC (HCT116 and HT29 cells; with N-Acetyl Cysteine (NAC)): abrogated; percentage of cells both Annexin-V and 7-AAD positive (HCT116 cells [5]): significantly higher; cell cycle effect (HCT116 cells [6]; HCT116): G2/M arrest; cell cycle effect on addition of NAC (HCT116 cells [6]; HCT116, with NAC): reversed |
| Cc1nc2ccccc2n1S(=O)(=O)c1ccc(F)cc1 [CB7] | – | – | – | 144 | 139 | – |
| O=C1Nc2ccccc2C1=O [Isatin] | 5.05 | ineffective | ineffective | 169 | 15.6 | – |
